compound,measurement,value
Cc1c(C(=O)CC(C)(C)C)c2cccc(Cl)c2n1CCC[S+](C)[O-] (stereo not shown),melting point,123 °C
